This note sets out measurements from ChEMBL document CHEMBL5303765, “Data for DCP probe BAY-7081” (2023).

A word on the inhibition: it is the change of the read-out against control, counted positive when it falls.

Each structure is given as a SMILES string.

Assay [1] has as its target Cyclin-dependent kinase 2 (Homo sapiens) (UniProt P24941). Put plainly: CDK2 SGC Tm panel (DSF). The following applies: for ΔTm: Compound concentration 10.0 uM.
The target in assay [2] is Dual specificity tyrosine-phosphorylation-regulated kinase 1A (Homo sapiens) (UniProt Q13627). Briefly: DYRK1A SGC Tm panel (DSF). Particulars: for ΔTm: Compound concentration 10.0 uM.
Assay [3] deals with Ephrin type-A receptor 2 (Homo sapiens) (UniProt P29317). Put plainly: EPHA2 SGC Tm panel (DSF). Particulars: for ΔTm: Compound concentration 10.0 uM.
Ephrin type-A receptor 2 (Homo sapiens), sequence (P29317 whole entry): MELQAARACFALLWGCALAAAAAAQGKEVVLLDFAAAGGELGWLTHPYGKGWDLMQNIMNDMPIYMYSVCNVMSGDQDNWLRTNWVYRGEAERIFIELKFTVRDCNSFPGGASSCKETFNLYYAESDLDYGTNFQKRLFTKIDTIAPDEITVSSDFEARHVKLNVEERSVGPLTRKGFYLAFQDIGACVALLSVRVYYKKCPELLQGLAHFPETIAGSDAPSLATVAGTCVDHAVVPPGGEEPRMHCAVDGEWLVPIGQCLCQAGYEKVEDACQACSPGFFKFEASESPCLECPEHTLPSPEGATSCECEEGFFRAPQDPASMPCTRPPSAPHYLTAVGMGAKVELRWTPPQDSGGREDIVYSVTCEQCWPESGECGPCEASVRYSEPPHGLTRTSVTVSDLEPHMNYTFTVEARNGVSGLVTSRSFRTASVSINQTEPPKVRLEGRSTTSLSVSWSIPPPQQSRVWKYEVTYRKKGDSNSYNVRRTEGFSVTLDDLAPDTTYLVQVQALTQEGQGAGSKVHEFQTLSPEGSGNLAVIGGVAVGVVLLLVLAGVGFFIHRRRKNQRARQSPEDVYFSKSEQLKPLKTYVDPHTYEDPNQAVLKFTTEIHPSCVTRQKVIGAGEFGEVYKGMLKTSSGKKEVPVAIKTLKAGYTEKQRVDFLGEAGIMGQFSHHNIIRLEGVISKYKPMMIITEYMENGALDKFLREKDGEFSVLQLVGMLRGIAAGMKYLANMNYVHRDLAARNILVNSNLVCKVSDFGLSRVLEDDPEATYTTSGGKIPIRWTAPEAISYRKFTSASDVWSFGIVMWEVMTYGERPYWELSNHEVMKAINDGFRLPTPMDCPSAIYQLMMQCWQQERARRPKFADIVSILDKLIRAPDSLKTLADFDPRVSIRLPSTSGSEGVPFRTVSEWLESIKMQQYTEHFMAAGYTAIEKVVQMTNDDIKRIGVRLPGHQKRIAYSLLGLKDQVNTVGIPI
For assay [4], the target named is T1, Dual specificity mitogen-activated protein kinase kinase 4 (Homo sapiens) (UniProt P45985).
T1 sequence (whole entry): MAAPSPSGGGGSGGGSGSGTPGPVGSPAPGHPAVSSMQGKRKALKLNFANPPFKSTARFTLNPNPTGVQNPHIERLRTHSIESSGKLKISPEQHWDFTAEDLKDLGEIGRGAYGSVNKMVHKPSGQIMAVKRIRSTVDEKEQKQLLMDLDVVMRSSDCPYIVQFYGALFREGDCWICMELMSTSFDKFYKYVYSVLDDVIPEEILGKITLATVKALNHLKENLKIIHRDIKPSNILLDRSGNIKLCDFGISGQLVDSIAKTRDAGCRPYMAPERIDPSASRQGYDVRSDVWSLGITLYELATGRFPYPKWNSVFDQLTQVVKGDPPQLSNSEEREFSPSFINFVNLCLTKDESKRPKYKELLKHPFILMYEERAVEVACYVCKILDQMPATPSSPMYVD
Briefly: MAP2K4 SGC Tm panel (DSF). Particulars: for ΔTm: Compound concentration 10.0 uM.

Assay [5] deals with T2, Serine/threonine-protein kinase Nek1 (Homo sapiens) (UniProt Q96PY6).
T2 sequence (whole entry): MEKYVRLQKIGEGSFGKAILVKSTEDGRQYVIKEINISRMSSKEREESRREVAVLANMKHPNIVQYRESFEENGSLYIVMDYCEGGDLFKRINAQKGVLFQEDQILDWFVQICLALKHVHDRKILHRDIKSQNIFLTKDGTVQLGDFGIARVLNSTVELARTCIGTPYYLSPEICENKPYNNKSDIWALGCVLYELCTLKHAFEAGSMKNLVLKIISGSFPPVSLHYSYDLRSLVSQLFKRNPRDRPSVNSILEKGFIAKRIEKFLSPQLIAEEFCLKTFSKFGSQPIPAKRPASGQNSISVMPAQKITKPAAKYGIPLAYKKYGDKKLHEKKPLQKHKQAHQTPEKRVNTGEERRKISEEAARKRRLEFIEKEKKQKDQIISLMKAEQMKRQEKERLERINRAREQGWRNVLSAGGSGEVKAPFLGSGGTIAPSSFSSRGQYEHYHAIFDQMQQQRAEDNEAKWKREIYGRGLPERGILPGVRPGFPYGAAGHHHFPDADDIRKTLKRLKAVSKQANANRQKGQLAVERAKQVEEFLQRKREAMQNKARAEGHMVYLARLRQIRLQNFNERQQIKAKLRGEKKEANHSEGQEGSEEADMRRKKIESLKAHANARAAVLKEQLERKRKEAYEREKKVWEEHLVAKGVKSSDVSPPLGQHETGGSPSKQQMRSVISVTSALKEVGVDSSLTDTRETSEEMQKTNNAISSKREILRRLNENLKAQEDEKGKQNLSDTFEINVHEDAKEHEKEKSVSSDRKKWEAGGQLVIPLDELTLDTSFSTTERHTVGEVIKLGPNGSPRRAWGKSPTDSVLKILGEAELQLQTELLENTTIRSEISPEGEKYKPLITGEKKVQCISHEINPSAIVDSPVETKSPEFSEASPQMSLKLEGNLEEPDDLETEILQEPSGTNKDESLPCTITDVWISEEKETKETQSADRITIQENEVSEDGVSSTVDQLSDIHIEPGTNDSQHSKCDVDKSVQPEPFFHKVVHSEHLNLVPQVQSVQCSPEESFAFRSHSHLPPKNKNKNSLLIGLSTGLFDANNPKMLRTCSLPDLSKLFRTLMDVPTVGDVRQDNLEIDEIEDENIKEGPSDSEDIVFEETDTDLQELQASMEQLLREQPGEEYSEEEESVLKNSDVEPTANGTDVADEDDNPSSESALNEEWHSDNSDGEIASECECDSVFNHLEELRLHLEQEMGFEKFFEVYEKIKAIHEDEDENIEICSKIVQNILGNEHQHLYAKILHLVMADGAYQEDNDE
Briefly: NEK1 SGC Tm panel (DSF). The following applies: for ΔTm: Compound concentration 10.0 uM.

Assay [6] deals with T3, Alpha-2A adrenergic receptor (Homo sapiens) (UniProt P08913).
T3 sequence (whole entry): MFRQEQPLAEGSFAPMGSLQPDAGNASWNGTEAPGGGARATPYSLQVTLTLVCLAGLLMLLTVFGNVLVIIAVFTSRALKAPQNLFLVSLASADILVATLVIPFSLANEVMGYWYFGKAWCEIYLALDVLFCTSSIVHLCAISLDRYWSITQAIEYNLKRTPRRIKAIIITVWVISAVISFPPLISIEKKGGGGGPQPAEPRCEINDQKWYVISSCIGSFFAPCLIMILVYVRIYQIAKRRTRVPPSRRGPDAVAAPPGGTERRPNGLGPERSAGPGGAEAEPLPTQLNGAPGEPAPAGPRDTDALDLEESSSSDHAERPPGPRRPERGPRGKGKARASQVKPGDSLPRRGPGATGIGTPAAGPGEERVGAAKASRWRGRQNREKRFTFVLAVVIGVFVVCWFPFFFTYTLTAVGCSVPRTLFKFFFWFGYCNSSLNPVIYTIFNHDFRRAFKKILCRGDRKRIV
Particulars: Compound concentration 10.0 uM.

Assay [7] has as its target T4, Muscarinic acetylcholine receptor M2 (Homo sapiens) (UniProt P08172).
T4 sequence (whole entry): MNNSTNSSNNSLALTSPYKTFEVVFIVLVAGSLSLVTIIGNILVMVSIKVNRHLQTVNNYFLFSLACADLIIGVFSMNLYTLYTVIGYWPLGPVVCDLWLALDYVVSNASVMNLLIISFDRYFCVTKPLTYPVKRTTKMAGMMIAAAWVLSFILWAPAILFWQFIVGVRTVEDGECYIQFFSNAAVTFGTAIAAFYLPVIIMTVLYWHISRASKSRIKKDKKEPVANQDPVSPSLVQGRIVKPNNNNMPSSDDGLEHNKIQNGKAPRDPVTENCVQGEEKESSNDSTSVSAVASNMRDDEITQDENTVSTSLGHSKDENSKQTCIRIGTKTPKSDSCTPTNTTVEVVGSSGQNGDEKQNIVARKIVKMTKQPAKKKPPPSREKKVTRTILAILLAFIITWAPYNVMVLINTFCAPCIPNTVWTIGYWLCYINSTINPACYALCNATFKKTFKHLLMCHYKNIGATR
The following applies: Compound concentration 10.0 uM.

The target of assay [8] is GABA-A receptor; anion channel (Rattus norvegicus) (UniProt O09028+P15431+P18506+P18508+P19969+P20236+P23574+P23576+P28471+P28473+P30191+P62813+P63079+P63138+Q91ZM7+Q9ES14). The following applies: Compound concentration 10.0 uM.

In the case of `CCC[C@H]1CNCc2c1[nH]c(=O)c(C#N)c2N1CCC2(CC1)CC2`, the delta Tm Staurosporine positive control in assay [1] is 14.3; in assay [2], 9.05; in assay [3], 7.41; in assay [4] it was 11.8; in assay [5] it was 2.43. Besides, the ΔTm in assay [1] was -0.589; in assay [2] it was -0.256; in assay [3], -0.621; in assay [4], -0.306; in assay [5], 0.404. Moreover, the inhibition is 5.64% in assay [6], -1.19% in assay [7] and 3.16% in assay [8].
In the case of `CCC[C@@H]1CNCc2c1[nH]c(=O)c(C#N)c2N1CCC2(CC1)CC2`, the delta Tm Staurosporine positive control in assay [1] stood at 14.3; in assay [2], 9.05; in assay [3], 7.41; in assay [4], 11.8; in assay [5], 2.43. The ΔTm in assay [1] was -0.673; in assay [2] it was 0.743; in assay [3], -0.623; in assay [4], -0.34; in assay [5], 0.25. Also, the figures for the inhibition in assay [6], in assay [7] and in assay [8] were 9.55%, 2.48% and -5.59%, respectively.
